Assay results from BigSolDB 2.1.

Cc1ccc(Nc2nccc(N(C)c3ccc4c(C)n(C)nc4c3)n2)cc1S(N)(=O)=O
solubility (mole fraction)
Details	288.15 K	293.15 K	298.15 K	303.15 K	308.15 K	313.15 K	318.15 K	323.15 K	328.15 K
in acetonitrile	1.08e-06	3.07e-06	5.16e-06	7.86e-06	1.11e-05	1.44e-05	1.8e-05	2.21e-05	2.72e-05
in n-butanol	1.07e-05	1.46e-05	1.88e-05	2.34e-05	2.86e-05	3.42e-05	4.04e-05	4.7e-05	5.43e-05
in n-propanol	9.96e-06	1.33e-05	1.67e-05	2.09e-05	2.55e-05	3.1e-05	3.65e-05	4.39e-05	5.11e-05
